Broadly, the IC50 is the concentration needed to halve the response being measured. Broadly, the inhibition is the relative decrease from the control value, in per cent.

Results on twelve molecules are retold here after paper PMC8400540, “Synthesis, Biological Evaluation, and In Silico Studies of New Acetylcholinesterase Inhibitors Based on Quinoxaline Scaffold” (Molecules, 2021).

Read-outs that look alike come from different tables or passages of the source. Where only a bound is given, the exact number is not on record here.

Data set [1] has as its target T1, human recombinant acetylcholinesterase (HuAChE) (Homo sapiens, UniProt P22303).
T1 construct: purchased Sigma-Aldrich
Briefly: biochemical. The conditions noted are these: for Selectivity BChE/AChE: Selectivity index for AChE: IC50 BChE/IC50 AChE.

Data set [2] addresses T2, butyrylcholinesterase from equine serum (EqBChE) (Equus caballus, UniProt P81908).
T2 construct: butyrylcholinesterase from equine serum (eqBChE); purchased Sigma-Aldrich; host or cells: equine serum
In words: biochemical. It counts as biochemical. The conditions noted are these: for IC50: EqBChE, n = three independent experiments; for IC50 / inhibition at 100 µM: mean ± SD; for inhibition at 100 µM: n = three, read-out: %Inhibition BChE; for butyrylcholinesterase inhibitory activity (in words): screened at 100 µM. The protocol:
Initially, acetylcholinesterase and butyrylcholinesterase inhibitory activities of the compounds were screened at the concentration of 100 µM. […] The raw data of IC50 in this study were able to be accessed in Supplementary Materials.
Human recombinant acetylcholinesterase (HuAChE), butyrylcholinesterase from equine serum (eqBChE), acetylthiocholine iodide (ATCI), butyrylthiocholine iodide (BTCI) and 5,5′-dithiobis(2-nitrobenzoic acid) (DTNB) were gained from Sigma-Aldrich. Assays of acetyl- and butyrylcholinesterase inhibitory activity were performed according to Ellman’s method described previously. Briefly, these assays were performed as follows. The reaction mixture (250 µL), containing 50 µL of buffer (50 mM Tris-HCl buffer (pH 8.0), 0.1 M NaCl, 0.02 M MgCl2.6H2O), 25 µL of 1.5 mM of ATCI or BTCI, 25 µL of 100 µM of test compounds in EtOH and 125 µL of 3 mM DTNB were added. Then, 25 µL of HuAChE and equine serum of BChE in 50 mM Tris-HCl buffer containing 0.1% (w/v) BSA (pH 8.0). Reactions were initiated by the addition of the enzyme into the medium. […] Each experiment was repeated in triplicate.
The percentage of enzyme inhibitory activity (%Inhibition) was calculated by the following expression: %Inhibition = ((Mean velocity of blank-Mean velocity of sample) × 100)/Mean velocity of blank.

Another data set has as its target T3, Human recombinant AChE (Homo sapiens, UniProt P22303).
T3 construct: purchased Sigma-Aldrich
Briefly: Enzyme kinetic study of AChE inhibition (Lineweaver-Burk). It counts as biochemical. The protocol:
[…]. The kinetic assay of AChE inhibition was carried out at 0, 30, 50 and 60 µM of compound 6c. […]. [ATCI], substrate concentration (µM); V, reaction velocity (1/V (abs/min)^−1).
Kinetic studies of HuAChE were performed by Ellman’s method as described above. […]. Kinetic characterization of the hydrolysis of ATCI for HuAChE was carried out spectrometrically at 405 nm every 11 s for 2 min. A parallel control was run with the assay solution without inhibitor. The inhibition was evaluated by Lineweaver–Burk plot from substrate concentrations range between 10 to 250 µM for ATCI and inhibitor concentrations (0, 30, 50, 60 µM). The type of inhibition (competitive, uncompetitive, noncompetitive and mixed type inhibition) was calculated from the Michaelis–Menten equation was converted to Lineweaver–Burk equation into a straight line by plotting 1/velocity opposite to 1/[S]. Graphs were plotted by means of GraphPad Prism 7.03 for Windows (GraphPad Software, San Diego, CA, USA, www.graphpad.com, accessed on 13 May 2021).
From obtained equations of regression curves in the Lineweaver-Burk plot, the values of maximum velocity (Vm) and Michealis constant (Km) were calculated. Using non-linear regression (selected panel: enzyme kinetic inhibition/ mixed model inhibition) the values of Ki and alpha were determined. The alpha value defines the mechanism. […]

The nature of data set [3]: Cytotoxicity, sulforhodamine B (SRB) assay. To be noted: human, SH-SY5Y neuroblastoma cells, up to 100 µM, read-out: LC50. It counts as cell-based. The protocol: Selected compounds in the series were then evaluated for their cytotoxicity against SH-SY5Y neuron cells. […].
Figure 3 The cytotoxic effect of synthesized compounds on SH-SY5Y cells as determined by SRB assay. Cells were treated with the synthesized compounds at different concentrations for 48 h, and then SRB assay was performed. Data are means ± SD of three independent experiments, and %cell viability was calculated relative to nontreated control.
The cytotoxicity assay of the tested compounds against human SH-SY5Y neuroblastoma cells was measured using a sulforhodamine B (SRB) assay. The cells were cultured in Dulbecco’s modified Eagle’s medium supplemented with 10% fetal bovine serum (Gibco, Paisley, UK) and grown at 37 °C in a humid atmosphere containing 5% CO2. Cells (10,000 cells/well) were seeded in a 96-well plate and incubated at 37 °C, 5% CO2 for 24 h. The cells were then treated with or without various concentrations (0, 3.125, 6.25, 12.5, 25, 50, and 100 μM) of each compound for 48 h. After an incubation period, 40% (w/v) trichloroacetic acid (TCA) was added to the cells, and the cells were then incubated at 4 °C for 1 h. A total of 0.4% (w/v) SRB solution (100 μL) was added to each well, and the cells were incubated for 1 h at room temperature. The SRB solution was removed, and then the cells were washed three times with 1% (v/v) acetic acid, and they were allowed to dry at room temperature. The protein-bound dye was dissolved with 10 mM Tris base solution, and the absorbance was measured at 492 nm using a microplate reader.
On the technique in general: The SRB assay estimates cell density from bound dye.

Where [4] appears, read: HuAChE, mean ± SD, n = three independent experiments, read-out: IC50 AChE.

T2 sequence (P81908 whole entry): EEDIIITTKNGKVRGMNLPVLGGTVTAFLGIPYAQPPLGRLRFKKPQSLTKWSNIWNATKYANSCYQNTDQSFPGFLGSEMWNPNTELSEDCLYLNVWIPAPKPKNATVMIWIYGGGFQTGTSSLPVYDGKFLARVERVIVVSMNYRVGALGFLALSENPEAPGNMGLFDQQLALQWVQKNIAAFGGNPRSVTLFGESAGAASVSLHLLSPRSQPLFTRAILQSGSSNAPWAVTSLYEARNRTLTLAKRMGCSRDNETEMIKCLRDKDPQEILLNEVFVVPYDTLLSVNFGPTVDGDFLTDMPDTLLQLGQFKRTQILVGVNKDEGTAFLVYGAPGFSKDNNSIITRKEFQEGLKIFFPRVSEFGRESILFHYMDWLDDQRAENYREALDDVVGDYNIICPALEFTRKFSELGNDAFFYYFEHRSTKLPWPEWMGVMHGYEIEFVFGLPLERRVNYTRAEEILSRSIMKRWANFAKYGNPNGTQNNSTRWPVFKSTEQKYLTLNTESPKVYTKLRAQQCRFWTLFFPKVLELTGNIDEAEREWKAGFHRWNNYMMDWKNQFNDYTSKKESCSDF
T1 sequence (P22303 32-614): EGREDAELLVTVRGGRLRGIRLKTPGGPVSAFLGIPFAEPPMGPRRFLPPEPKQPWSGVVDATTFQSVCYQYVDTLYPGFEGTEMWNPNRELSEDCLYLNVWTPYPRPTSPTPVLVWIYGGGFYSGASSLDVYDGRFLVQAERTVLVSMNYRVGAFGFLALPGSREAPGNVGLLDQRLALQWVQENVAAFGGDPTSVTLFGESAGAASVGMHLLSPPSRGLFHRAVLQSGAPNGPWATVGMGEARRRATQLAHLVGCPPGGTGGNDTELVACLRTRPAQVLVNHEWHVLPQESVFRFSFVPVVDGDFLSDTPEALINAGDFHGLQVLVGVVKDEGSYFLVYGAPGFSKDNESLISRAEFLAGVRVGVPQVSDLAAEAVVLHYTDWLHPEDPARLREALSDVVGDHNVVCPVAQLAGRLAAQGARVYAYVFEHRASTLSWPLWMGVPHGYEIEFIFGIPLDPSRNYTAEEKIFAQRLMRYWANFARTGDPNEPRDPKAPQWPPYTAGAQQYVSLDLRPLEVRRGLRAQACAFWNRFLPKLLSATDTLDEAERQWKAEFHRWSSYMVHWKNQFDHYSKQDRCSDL
T3 sequence (P22303 32-614): as above

Consider `c1ccc2nccnc2c1` [Compound 3a, Quinoxaline], for which, in data set [1], the IC50 stood at 13.2 ± 4.1 µM and the “Selectivity BChE/AChE” value is 3.07. The molecule further yielded a half-inhibitory concentration (IC50) in data set [2] of 40.6 ± 1.6 µM.
On to `Cc1nc2ccc([N+](=O)[O-])cc2nc1C` [Compound 5c, 2,3-Dimethyl-6-nitroquinoxaline], for which, in data set [1] (setting [4]), the IC50 was determined as 8.42 ± 1.8 µM. Besides, in data set [2], the inhibition at 100 µM amounted to 32.1% and the “butyrylcholinesterase inhibitory activity (in words)” value is “no activity”.
For the molecule `c1ccc(-c2cnc3ccccc3n2)cc1` [Compound 3b, 2-Phenylquinoxaline], the IC50 was determined as 50.1 ± 2.6 µM in data set [1] (setting [4]) and 14.9 ± 2.6 µM in data set [2]. In data set [1], the “Selectivity BChE/AChE” value was 0.29.
On to `Cc1nc2ccccc2nc1C` [Compound 3c, 2,3-Dimethylquinoxaline], for which the IC50 in data set [1] is 7.25 ± 1.5 µM. In data set [2], the inhibition at 100 µM came to 23.4% and the “butyrylcholinesterase inhibitory activity (in words)” value is “no activity”.
As to `Clc1ccc2ncc(-c3ccccc3)nc2c1` [Compound 4b, 7-Chloro-2-phenylquinoxaline], the IC50 in data set [1] (setting [4]) was found to be 28.5 ± 1.6 µM. Moreover, the inhibition at 100 µM in data set [2] amounted to 41.2%.
Take `Cc1nc2ccc(N)cc2nc1C` [Compound 6c, 2,3-Dimethylquinoxalin-6-amine]: the IC50 in data set [1] (setting [4]) came to 0.077 ± 0.01 µM. In data set [2], the inhibition at 100 µM was found to be 29.2% and the “butyrylcholinesterase inhibitory activity (in words)” value is reported as “no activity”. Besides, on Human recombinant AChE (Lineweaver-Burk plot), the “type of AChE inhibition” value is on record as “mixed-type inhibitor”. In addition, the Alpha at Human recombinant AChE (non-linear regression, mixed model inhibition) was 0.1875. Moreover, the CC50 at 48 h in data set [3] was above 100 µM.
In the case of `Cc1nc2ccc(Cl)cc2nc1C` [Compound 4c, 6-Chloro-2,3-dimethylquinoxaline], the 50% inhibitory concentration (IC50) in data set [1] (setting [4]) came to 10.7 ± 1.4 µM. In addition, in data set [2], the inhibition at 100 µM turned out to be 37.4% and the “butyrylcholinesterase inhibitory activity (in words)” value is “no activity”.
For `Clc1ccc2nccnc2c1` [Compound 4a, 6-Chloroquinoxaline], the IC50 in data set [1] turned out to be 23.9 ± 1.3 µM. The inhibition at 100 µM in data set [2] came out at 37.4%.
For `Nc1ccc2nccnc2c1` [Compound 6a, Quinoxalin-6-amine], in data set [1], the IC50 is 0.74 ± 0.5 µM. Besides, the inhibition at 100 µM in data set [2] came out at 32.9%. Also, the CC50 at 48 h in data set [3] is above 100 µM.
`O=[N+]([O-])c1ccc2ncc(-c3ccccc3)nc2c1` [Compound 5b, 7-Nitro-2-phenylquinoxaline]: the IC50 in data set [1] (setting [4]) was 39 ± 0.8 µM; in data set [2], 61 ± 3.4 µM. The “Selectivity BChE/AChE” value in data set [1] is 1.56.
Regarding `Nc1ccc2ncc(-c3ccccc3)nc2c1` [Compound 6b, 3-Phenylquinoxalin-6-amine], the IC50 in data set [1] (setting [4]) was determined as 1.31 ± 0.2 µM. Moreover, the inhibition at 100 µM in data set [2] is 44.1%. Further, in data set [3], the CC50 at 48 h was above 100 µM.
Consider `O=[N+]([O-])c1ccc2nccnc2c1` [Compound 5a, 6-Nitroquinoxaline], for which the 50% inhibitory concentration (IC50) in data set [1] (setting [4]) came to 21.3 ± 1.5 µM; in data set [2], 42 ± 1 µM. Further, in data set [1], the “Selectivity BChE/AChE” value was found to be 1.97.
